From patent US7220731B2, “Derivatised carbohydrates and their use in solid delivery systems” (Elan Drug Delivery Limited, priority 2000, dated 2007)

What was measured:
[1] = glass temperature of the compound; format: physicochemical
log pow = format: physicochemical; details: octanol/water
water solubility (glass) = format: physicochemical
[2] = physical stability (t½ induction) at 40° C./75% RH; format: physicochemical
[3] = hydrolytic stability (t½) at 20° C.; format: physicochemical; details: buffer

- glass temperature [1]: 110 °C
- logP (log pow): 2.9
- water solubility (glass) (water solubility (glass)): 9.5 ppm
- physical stability (t½ induction) [2]: >1176 h
- half-life ([3]; pH 4): 12 h
- half-life ([3]; pH 7): 14 h
- half-life ([3]; pH 9): < 1 h
- melting point: 156 °C
SMILES: CC(=O)OC1C(O[C@@H]2OC(COC(=O)C3O[C@H](OC(C)=O)C(OC(C)=O)C(OC(C)=O)[C@@H]3OC(C)=O)[C@@H](OC(C)=O)C(OC(C)=O)C2OC(C)=O)OC(COC(=O)C2O[C@H](OC(C)=O)C(OC(C)=O)C(OC(C)=O)[C@H]2OC(C)=O)[C@@H](OC(C)=O)C1OC(C)=O (stereo partly drawn) [Example 1, di(β-tetraacetylglucuronyl)hexaacetyltrehalose]
